Assay results as given in patent US20100056515A1, “BENZIMIDAZOLE COMPOUNDS” (priority 2006, published 2010).

Assays:
[1] = target: T1, human CRF receptor (Homo sapiens, UniProt P34998); assay: Measurement of CRF Binding Inhibitory Rate (receptor binding experiment with 125I-CRF); settings: human CRF receptor expressing CHO cellular membrane fraction; 50 pM ovine 125I-CRF; 0.05 nM to 10 μM of compound; room temperature 1.5 hr; read-out: IC50 values (CRF binding inhibition)
T1 construct: expressed in transfected cells; host or cells: CHO cells (membrane fraction)
T1 sequence (P34998 24-415): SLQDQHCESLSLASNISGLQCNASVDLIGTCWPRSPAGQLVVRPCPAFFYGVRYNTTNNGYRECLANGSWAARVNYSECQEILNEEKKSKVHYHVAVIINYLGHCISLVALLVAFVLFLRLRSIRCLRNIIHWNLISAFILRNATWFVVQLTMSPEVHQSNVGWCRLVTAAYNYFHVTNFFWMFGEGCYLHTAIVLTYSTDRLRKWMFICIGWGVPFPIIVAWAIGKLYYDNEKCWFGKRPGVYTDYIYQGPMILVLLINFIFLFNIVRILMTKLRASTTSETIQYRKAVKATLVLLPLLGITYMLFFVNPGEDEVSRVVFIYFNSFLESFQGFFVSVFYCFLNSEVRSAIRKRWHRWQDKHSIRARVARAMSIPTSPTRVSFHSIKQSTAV
Method: Measurement of CRF Binding Inhibitory Rate
A receptor binding experiment was carried out using a human CRF receptor expressing CHO cellular membrane fraction and ovine CRF, [^125I]-tyr^0(^125I-CRF). 1000 nM of a test compound was incubated with 1 μg of human CRF receptor expressing CHO cellular membrane fraction and 50 pM of ^125I-CRF in a binding assay buffer (50 mM Tris-HCl, 5 mM EDTA, 10 mM MgCl2, 0.05% CHAPS, 0.1% BSA, 0.5 mM PMSF, 0.1 μg/mL pepstatin, 20 μg/mL leupeptin, pH 7.5). In addition, for measuring nonspecific binding (NSB), 0.1 μM unlabelled human Urocortin was incubated with 5 μg of human CRF receptor expressing CHO cellular membrane fraction and 50 pM of ^125I-CRF in a binding assay buffer. After a binding reaction was carried out at room temperature for 1.5 hr, the membrane was entrapped on a glass filter (UniFilter plate GF-C/Perkin Elmer) by suction filtration using a cell harvester (Perkin Elmer), and washed with ice-cooled 50 mM Tris-HCl (pH 7.5). After drying the glass filter, a liquid scintillation cocktail (Microscinti 0, Perkin Elmer) was added, and the radioactivity of ^125I-CRF remaining on a glass filter was measured using Topcount (Perkin Elmer).
(TB-SB)/(TB-NSB)×100 (SB: radioactivity when a compound is added, TB: maximum binding radioactivity, NSB: nonspecific binding radioactivity) were calculated to obtain binding inhibitory rates under the range of the presence from 0.05 nM to 10 μM of each compounds. The IC50 values were calculated by using GraphPad Prism software.

For `CCC(CC)c1ccc(OC)c2nc(Oc3c(Cl)cc(Cl)cc3CN3CCCC3)n(C)c12.Cl` [Example 79, 2-[2,4-Dichloro-6-(pyrrolidin-1-ylmethyl)phenoxy]-7-(1-ethylpropyl)-4-methoxy-1-methyl-1H-benzimidazole], the IC50 [1] was under 1000 nM and the melting point was 183 to 185 °C.

Work on `CCC(CC)c1ccc(OC)c2nc(Oc3c(Cl)cc(N(C)C)cc3Cl)n(C)c12` [Example 2, 3,5-Dichloro-4-{[7-(1-ethylpropyl)-4-methoxy-1-methyl-1H-benzimidazol-2-yl]oxy}-N,N-dimethylaniline] yielded an IC50 [1] of under 1000 nM and a melting point of 176 to 177 °C.

`CCC(CC)c1ccc(Cl)c2nc(Nc3c(C)cc(Cl)cc3SC)n(C)c12` [Example 50, 4-Chloro-N-[4-chloro-2-methyl-6-(methylthio)phenyl]-7-(1-ethylpropyl)-1-methyl-1H-benzimidazol-2-amine] showed an IC50 [1] of under 1000 nM and a melting point of 167 to 169 °C.

For `CCC(CC)c1ccc(Br)c2nc(Oc3c(C)cc(Cl)cc3Cl)n(C)c12` [Example 70, 4-Bromo-2-(2,4-dichloro-6-methylphenoxy)-7-(1-ethylpropyl)-1-methyl-1H-benzimidazole], the IC50 [1] was under 1000 nM and the melting point was 146 to 147 °C.

For `CCC(CC)c1ccc(Cl)c2nc(Oc3c(Br)cc(Br)nc3C)n(C)c12` [Example 74, 4-Chloro-2-[(4,6-dibromo-2-methylpyridin-3-yl)oxy]-7-(1-ethylpropyl)-1-methyl-1H-benzimidazole], the IC50 [1] was under 1000 nM and the melting point was 202 to 203 °C.

`CCC(CC)c1ccc(Cl)c2nc(Oc3c(Cl)cc(Cl)cc3N3CCN(C)CC3)n(C)c12` [Example 26, 4-Chloro-2-[2,4-dichloro-6-(4-methylpiperazin-1-yl)phenoxy]-7-(1-ethylpropyl)-1-methyl-1H-benzimidazole] showed an IC50 [1] of under 1000 nM and a melting point of 162 to 164 °C.

In the case of `CCC(CC)c1ccc(OC)c2nc(Oc3c(Cl)cc(Cl)cc3CN3CCCC3C)n(C)c12.Cl` (centres unmarked) [Example 80, 2-{2,4-Dichloro-6-[(2-methylpyrrolidin-1-yl)methyl]phenoxy}-7-(1-ethylpropyl)-4-methoxy-1-methyl-1H-benzimidazole], the IC50 [1] is reported as under 1000 nM and the melting point is reported as 171 to 173 °C.

For `CCC(CC)c1ccc(Cl)c2nc(Nc3c(C)cc(Cl)cc3[S+](C)[O-])n(C)c12` (centres unmarked) [Example 51, 4-Chloro-N-[4-chloro-2-methyl-6-(methylsulfinyl)phenyl]-7-(1-ethylpropyl)-1-methyl-1H-benzimidazol-2-amine], the IC50 [1] was under 1000 nM and the melting point was 212 to 213 °C.

`CCC(CC)c1ccc(Cl)c2nc(Oc3c(C)cc(SC)cc3Cl)n(C)c12` [Example 36, 4-Chloro-2-[2-chloro-6-methyl-4-(methylthio)phenoxy]-7-(1-ethylpropyl)-1-methyl-1H-benzimidazole] showed an IC50 [1] of under 1000 nM and a melting point of 141 to 143 °C.

`CCC(CC)c1ccc(OC)c2nc(Oc3c(Cl)cc(Cl)cc3N(C)C)n(C)c12` [Example 7, 3,5-Dichloro-2-{[7-(1-ethylpropyl)-4-methoxy-1-methyl-1H-benzimidazol-2-yl]oxy}-N,N-dimethylaniline] showed an IC50 [1] of under 1000 nM and a melting point of 173 to 175 °C.

For `CCC(CC)c1ccc(Cl)c2nc(Nc3c(C)cc(SC)cc3OC)n(C)c12` [Example 45, 4-Chloro-7-(1-ethylpropyl)-N-[2-methoxy-6-methyl-4-(methylthio)phenyl]-1-methyl-1H-benzimidazol-2-amine], the IC50 [1] was under 1000 nM and the melting point was 223 to 225 °C.

`CCC(CC)c1ccc(OC)c2nc(Nc3ccc(Cl)cc3Cl)n(C)c12` [Example 20, N-(2,4-Dichlorophenyl)-7-(1-ethylpropyl)-4-methoxy-1-methyl-1H-benzimidazol-2-amine] gave an IC50 [1] of under 1000 nM and a melting point of 198 to 200 °C.

In the case of `CCC(CC)c1ccc(Cl)c2nc(Oc3c(Cl)cc(Cl)cc3S(N)(=O)=O)n(C)c12` [Example 32, 3,5-Dichloro-2-{[4-chloro-7-(1-ethylpropyl)-1-methyl-1H-5 benzimidazol-2-yl]oxy}benzenesulfonamide], the IC50 [1] is reported as under 1000 nM and the melting point is reported as 133 to 134 °C.
